Experimental data as given in PMC10653080, “Intermolecular Interactions, Solute Descriptors, and Partition Properties of Neutral Per- and Polyfluoroalkyl Substances (PFAS)” (Environmental Science & Technology, 2023).
Several values for one entry are separate records, joined by “and”; a condition that tells them apart may be missing. Identical values can stand only once.

What was measured:
[1] = PP-LFER solute descriptor determination from GC retention and partition coefficient data; format: physicochemical; conditions: for Solute descriptor L (logarithmic hexadecane/air partition coefficient, KHxd/air): 25 °C, updated in the iterative calculation; for Solute descriptor S (dipolarity/polarizability parameter): final adjusted value, shared within a PFAS group
From the text: The GC columns used were, from low to high polarity, HP-5ms Ultra Inert (poly[5% phenyl/95% methyl]siloxane equivalent; Agilent Technologies, Santa Clara, CA), DB-200 (poly[35% trifluoropropyl/65% methyl]siloxane; Agilent Technologies), DB-225ms (poly[50% cyanopropylphenyl/50% methyl]siloxane equivalent; Agilent Technologies), and SolGel-WAX (polyethylene glycol; Trajan, Ringwood, Australia). Column dimensions were all 30 m × 0.25 mm i.d. with a coating thickness of 0.25 μm.
The method for GC retention time measurements follows that of a previous study.[18] Briefly, a 7890A/5975C GC/MS instrument (Agilent Technologies) equipped with an MPS2 autosampler and CIS4 injector (Gerstel, Mülheim an der Ruhr, Germany) was used for all measurements. For each column, isothermal retention times were measured at four temperatures in the range of 30–120 °C to cover all target compounds. The temperature at the injector and transfer line was fixed at 120 °C. The carrier gas was He at a flow rate of 1.2 mL/min. Compounds were introduced into the GC by injecting either headspace (100–250 μL) above the pure compound or solution in acetone (1 μL). Split injections were performed with a split ratio of 20–250. Column dead time (t0) was determined by injecting air and measuring Ar (m/z 40). From the measured retention time (t), the retention factor (k) was calculated as k = (t–t0)/t0. Measurements with t < t0 + 0.1 min were considered too short and discarded. For each column and temperature, k values were obtained for 29–52 PFAS and 29–48 reference compounds.
The standard procedure for solute descriptor determination was as follows. First, the system parameters in eq 1 were calibrated for each column (or partition system) and temperature by MLR using log k (or log K) data and solute descriptors for reference compounds. Dimethylformamide, 1-pentylamine, dimethylsulfoxide, and dodecamethylcyclohexasiloxane (D6) were removed from the log k data sets, because they frequently appeared as outliers (>3 SD) of the PP-LFER model fit. Reference data sets for hexadecane/water partition coefficients (KHxd/w),[21]Kow,[22] and octanol/air partition coefficients (Koa)[23] were taken from the cited references and amended with data for organosilicon compounds.[24],[25] Similar to PFAS, organosilicon compounds have weak van der Waals interaction properties[9] and it may be beneficial to include them in reference data sets. The solute descriptors for PFAS were then back-calculated by using the calibrated PP-LFER equations. Of the five descriptors, V can be calculated from the molecular structure[26] (note: the fragment value for F from Goss et al.[11] was used), and L was available for the PFAS studied.[18] Thus, the left side of eq 2 was known, and MLR was performed to obtain S, A, and B on the right side. [drawing 2] 2 To determine the three descriptors, a minimum of three k and K data are required for a given PFAS compound. The data used here were: k measured for 60 PFAS in this study, KHxd/w for 21 PFAS,[5]Kow for 12 PFAS (see the Results and Discussion section), and Koa for 3 PFAS.[11]
Key to the accurate determination of the polar interaction descriptors is the availability of K data for partition systems with water as a partition phase because water is a strong H-bond donor and acceptor phase and thus the corresponding K values are sensitive to the H-bonding properties of the solute.[27] In particular, at least one solvent/water or air/water partition coefficient is required to determine B because there is no commonly used GC phase that is a significant H-bond donor. In the data set, KHxd/w is sensitive to both A and B and Kow is sensitive to B. However, KHxd/w and Kow data are not available for all PFAS. To increase the number of PFAS for which descriptors can be determined, the following assumptions were made. […]

[2] = parameters: method as in PMID 18800530; conditions: 25 °C; batch partition method (BP); ref [4]; cited from earlier work
[3] = Octanol/water partition coefficient (Kow), batch partition method; format: physicochemical; conditions: 25 °C; batch partition method (BP)
Experimental: (§1) Kow was measured for nine PFAS (Table 2) to supplement the data set for descriptor determination. The nine PFAS were selected based on measurement feasibility and structural diversity. The shared-headspace or batch partition method was used as described previously.[5] Details of the methods are given in SI-1.

[4] = Octanol/water partition coefficient (Kow), shared-headspace method; format: physicochemical; conditions: 25 °C; shared-headspace method (SH)
Experimental: as §1

| SMILES | Solute descriptor L (logarithmic hexadecane/air partition coefficient, KHxd/air) [1] | Solute descriptor S (dipolarity/polarizability parameter) [1] | Log Kow, Mean ± SD [2] | Measured Log Kow, Mean ± SD [3] | Measured Log Kow, Mean ± SD [4] |
| --- | --- | --- | --- | --- | --- |
| OCCC(F)(F)C(F)(F)C(F)(F)C(F)(F)C(F)(F)C(F)(F)F [6:2 FTOH, 1H,1H,2H,2H-Perfluorooctan-1-ol] | 2.997 | 0.35 | 4.54 ± 0.01 |  |  |
| CNS(=O)(=O)C(F)(F)C(F)(F)C(F)(F)C(F)(F)F [MeFBSA, N-Methylperfluorobutanesulfonamide] | 3.566 | 0.88 |  | 3.51 ± 0.00 |  |
| OCCC(F)(F)C(F)(F)C(F)(F)C(F)(F)C(F)(F)C(F)(F)C(F)(F)C(F)(F)F [8:2 FTOH, 1H,1H,2H,2H-Perfluorodecan-1-ol] | 3.554 | 0.35 | 5.58 ± 0.06 |  |  |
| FC(F)(F)C(F)(F)C(F)(F)C(F)(F)C(F)(F)C(F)(F)CI [6:1 FTI, 1H,1H-Perfluoroheptyl iodide] | 3.382 and 3.38 | 0.27 and 0.27 ± 0.02 |  |  | 5.57 ± 0.01 |
| OCCCCC(F)(F)C(F)(F)C(F)(F)C(F)(F)F [4:4 FTOH, 5,5,6,6,7,7,8,8,8-Nonafluorooctan-1-ol] | 3.499 | 0.52 |  |  | 3.54 ± 0.00 |
| NS(=O)(=O)C(F)(F)C(F)(F)C(F)(F)C(F)(F)F [PFBSA, Perfluorobutanesulfonamide] | 3.607 | 0.96 |  | 2.85 ± 0.02 |  |
| OCCC(F)(F)C(F)(F)C(F)(F)C(F)(F)F [4:2 FTOH, 1H,1H,2H,2H-Perfluorohexan-1-ol] | 2.421 | 0.35 | 3.30 ± 0.04 |  |  |
| CN(CCO)S(=O)(=O)C(F)(F)C(F)(F)C(F)(F)C(F)(F)F [MeFBSE, N-Methylperfluorobutanesulfonamidoethanol] | 4.769 | 1.00 |  | 3.11 ± 0.04 |  |
| OCCCC(F)(F)C(F)(F)C(F)(F)F [3:3 FTOH, 4,4,5,5,6,6,6-Heptafluorohexan-1-ol] | 2.710 | 0.53 |  |  | 2.46 ± 0.00 |
| CC(O)C(F)(F)C(F)(F)C(F)(F)C(F)(F)C(F)(F)F (stereo not drawn) [5:2s FTOH, 1H,1H,1H,2H-Perfluoroheptan-2-ol] | 2.296 | 0.39 and 0.39 ± 0.02 |  |  | 3.80 ± 0.03 |
| FC(F)C(F)(F)C(F)(F)C(F)(F)C(F)(F)C(F)(F)CI [6:1 FTI-7H, 1H,1H,7H-Perfluoroheptyl iodide] | 3.887 and 3.89 | 0.63 and 0.63 ± 0.04 |  |  | 4.90 ± 0.01 |
